Measurements reported in ChEMBL document CHEMBL1133765, “QSAR model for drug human oral bioavailability” (J Med Chem, 2000).

How the values were obtained:
[1] = Partition coefficient (logD6.5); type: physicochemical; settings: octanol/water, pH 6.5
[2] = octanol/water
[3] = clinical; settings: human, in vivo, po
[4] = human, in vivo, po
[5] = octanol/water; remark: listed apart in the source
[6] = octanol/water; remark: listed apart in the source
[7] = clinical; settings: human, in vivo, po; remark: listed apart in the source
[8] = physchem
[9] = physchem; settings: octanol/water, pH 6.5
[10] = Oral bioavailability in human; type: ADME, organism-based; settings: in vivo
[11] = physchem; settings: octanol/water, pH 6.5, logD
[12] = octanol/water; remark: listed apart in the source
[13] = clinical; settings: human, in vivo, po; remark: listed apart in the source

| SMILES | delta logD [2] | bioavailability [7] | pKa [8] | logD [9] | further results |
| --- | --- | --- | --- | --- | --- |
| CO/C(O)=C1\C(C)=NC(C)=C(C(=O)OC(C)C)C1c1cccc2nonc12 (configuration not stated) | 0 | – | – | – | logD [1]: 1.72; bioavailability ([3]; F): ≤ 20% |
| Nc1ccn([C@H]2CC[C@@H](CO)O2)c(=O)n1 (stereo in doubt; 1) [ZALCITABINE] | – | – | – | – | F [4]: < 20%; logD [5]: 3.2 |
| Nc1ccn([C@H]2CC[C@@H](CO)O2)c(=O)n1 (stereo in doubt; 232) [ZALCITABINE] | – | – | – | – | F [4]: > 80%; delta logD [6]: 0 |
| CCCC(=O)Nc1ccc(OCC(O)CNC(C)C)c(C(C)=O)c1 (configuration not stated) [ACEBUTOLOL] | – | 49% | – | – | – |
| CC[C@H]1[C@@H]2C[C@H]3[C@@H]4N(C)c5ccccc5[C@]45C[C@@H]([C@@H]2[C@H]5O)N3[C@@H]1O [AJMALINE] | -0.25 | 49% | 6.5 | 2.42 | – |
| CC(C)(C)NCC(O)c1ccc(O)c(CO)c1 (configuration not stated) [ALBUTEROL] | -0.9 | 49% | – | -2.69 | – |
| O=C1C(O)=C([C@H]2CC[C@H](c3ccc(Cl)cc3)CC2)C(=O)c2ccccc21 [ATOVAQUONE] | – | – | – | – | bioavailability [10]: 49%; logD [11]: 3.96 |
| CC(C)NCC(O)COc1ccc(CCOCC2CC2)cc1 (configuration not stated) [BETAXOLOL] | – | – | 9.4 | – | delta logD [6]: -0.9; logD ([5]; pH 6.5): -0.07; bioavailability ([3]; F): > 80% |
| COc1ccccc1OCCNCC(O)COc1cccc2[nH]c3ccccc3c12 (configuration not stated) [CARVEDILOL] | -0.9 | 49% | 9.3 | 1.31 | – |
| O=C(O)CCCc1ccc(N(CCCl)CCCl)cc1 [CHLORAMBUCIL] | – | – | – | – | delta logD [6]: 0.82; logD [5]: 2.29; bioavailability [3]: > 80% |
| NS(=O)(=O)c1cc2c(cc1Cl)N=CNS2(=O)=O [CHLOROTHIAZIDE] | 0.57 | 49% | 6.7 | -0.45 | – |
| COc1cc(N)c(Cl)cc1C(=O)NC1CCN(CCCOc2ccc(F)cc2)CC1OC (configuration not stated) [CISAPRIDE] | -0.75 | 49% | 7.7 | 1.79 | – |
| CN1CCC[C@@H]1CCO[C@](C)(c1ccccc1)c1ccc(Cl)cc1 [CLEMASTINE] | -0.89 | 49% | 9.2 | 1.65 | – |
| COc1ccc2c3c1O[C@H]1[C@@H](O)C=C[C@H]4[C@@H](C2)N(C)CC[C@@]341 [CODEINE] | – | – | – | – | delta logD [6]: -0.8; logD [5]: -0.28; bioavailability [3]: 79% |
| COc1ccc([C@@H]2Sc3ccccc3N(CCN(C)C)C(=O)[C@@H]2OC(C)=O)cc1 [DILTIAZEM] | -0.75 | 49% | – | 1.47 | – |
| CCC(C)(C)NCC(O)COc1ccccc1C(=O)CCc1ccccc1 (configuration not stated) [DIPRAFENONE] | -0.89 | 49% | 9.2 | 0.59 | – |
| CN(C)CCC=C1c2ccccc2COc2ccccc21 [DOXEPIN] | -0.82 | 49% | 8 | 1.55 | – |
| COc1ccc(C(=O)Nc2ccccc2CCC2CCCCN2C)cc1 (configuration not stated) [ENCAINIDE] | -0.9 | 49% | 10.2 | -0.34 | – |
| CC[C@@H](CO)NCCN[C@@H](CC)CO [ETHAMBUTOL] | -0.9 | – | 9.5 | – | logD [12]: -4.02; bioavailability [13]: 79% |
| NC(N)=Nc1nc(CSCCC(N)=NS(N)(=O)=O)cs1 [FAMOTIDINE] | -0.52 | 49% | 7.1 | -1.27 | – |
| CC(C)n1c(/C=C/C(O)CC(O)CC(=O)O)c(-c2ccc(F)cc2)c2ccccc21 (configuration not stated) [FLUVASTATIN] | 0.9 | 49% | 4.5 | 1.42 | – |
| CN(C)CCCN1c2ccccc2CCc2ccccc21 [IMIPRAMINE] | – | 49% | – | – | – |
| O=C(NC1CCN(CCc2c[nH]c3ccccc23)CC1)c1ccccc1 [INDORAMIN] | -0.75 | 49% | 7.7 | 1.56 | – |
| CC(CCc1ccccc1)NCC(O)c1ccc(O)c(C(N)=O)c1 (configuration not stated) [LABETALOL] | -0.9 | 49% | 9.3 | 0.35 | – |
| COc1ccc2c(c1)N(C[C@H](C)CN(C)C)c1ccccc1S2 [LEVOMEPROMAZINE] | -0.89 | – | 9.2 | 1.98 | bioavailability [13]: 79% |
| CN(Cc1cnc2nc(N)nc(N)c2n1)c1ccc(C(=O)N[C@@H](CCC(=O)O)C(=O)O)cc1 [METHOTREXATE] | 0.9 | – | – | – | logD [12]: -4.55; bioavailability [13]: 79% |
| COCC(=O)O[C@]1(CCN(C)CCCc2nc3ccccc3[nH]2)CCc2cc(F)ccc2[C@@H]1C(C)C [MIBEFRADIL] | -0.9 | – | 9.3 | 1.25 | bioavailability [13]: 79% |

| SMILES | delta logD [2] | bioavailability [7] | pKa [8] | logD [9] | further results |
| --- | --- | --- | --- | --- | --- |
| Cc1ncc2n1-c1ccc(Cl)cc1C(c1ccccc1F)=NC2 [MIDAZOLAM] | -0.14 | 49% | 6.1 | 1.37 | – |
| O=C(NCCN1CCOCC1)c1ccc(Cl)cc1 [MOCLOBEMIDE] | -0.15 | – | 6.2 | 1.26 | bioavailability [13]: 79% |
| CCOC(=O)Nc1ccc2c(c1)N(C(=O)CCN1CCOCC1)c1ccccc1S2 [MORICIZINE] | -0.21 | 49% | 6.4 | 2.73 | – |
| CC(C)(C)NCC(O)COc1cccc2c1CC(O)C(O)C2 (configuration not stated) [NADOLOL] | -0.9 | 49% | 9.7 | – | logD [12]: -2.46 |
| CCOc1ccc2ccccc2c1C(=O)N[C@@H]1C(=O)N2[C@@H]1SC(C)(C)[C@@H]2C(=O)O [NAFCILLIN] | 0.9 | 49% | – | -0.84 | – |
| CN1CCC[C@H]1c1cccnc1 [NICOTINE] | -0.82 | 49% | – | -0.34 | – |
| CCOC(=O)C1=C(C)NC(C)=C(C(=O)OC)C1c1cccc([N+](=O)[O-])c1 (configuration not stated) [NITRENDIPINE] | – | – | – | – | delta logD [6]: 0; logD [5]: 0.97; bioavailability ([3]; F): < 20% |
| Cc1cc2c(s1)Nc1ccccc1N=C2N1CCN(C)CC1 [OLANZAPINE] | -0.81 | – | 8 | -0.02 | bioavailability [13]: 79% |
| COc1ccc2[nH]c([S+]([O-])Cc3ncc(C)c(OC)c3C)nc2c1 (configuration not stated) [OMEPRAZOLE] | -0.02 | – | 5.2 | 2.21 | bioavailability [13]: 79% |
| Cc1onc(-c2ccccc2)c1C(=O)N[C@@H]1C(=O)N2[C@@H]1SC(C)(C)[C@@H]2C(=O)O [OXACILLIN] | 0.9 | 49% | – | -1.32 | – |
| C=CCOc1ccccc1OCC(O)CNC(C)C (configuration not stated) [OXPRENOLOL] | -0.9 | 49% | 9.3 | – | logD ([12]; pH 6.5): -0.72 |
| Fc1ccc([C@@H]2CCNC[C@H]2COc2ccc3c(c2)OCO3)cc1 [PAROXETINE] | -0.9 | – | 11.2 | -1.96 | bioavailability [13]: 79% |
| OCCN1CCN(CCCN2c3ccccc3Sc3ccc(Cl)cc32)CC1 [PERPHENAZINE] | -0.77 | – | – | – | logD [12]: 2.88; bioavailability [13]: 79% |
| CN1CCN(CC(=O)N2c3ccccc3C(=O)Nc3cccnc32)CC1 [PIRENZEPINE] | -0.83 | 49% | 8.1 | – | logD [12]: -1.51 |
| CC(C)NC[C@H](O)COc1ccc(O)cc1 [PRENALTEROL] | -0.89 | 49% | 9.2 | -1.61 | – |
| CC(CN1c2ccccc2Sc2ccccc21)N(C)C (configuration not stated) [PROMETHAZINE] | -0.89 | 49% | – | 2.21 | – |
| CCC(=O)O[C@](Cc1ccccc1)(c1ccccc1)[C@H](C)CN(C)C [PROPOXYPHENE] | -0.89 | 49% | – | 2.2 | – |
| CC(C)NCC(O)COc1cccc2ccccc12 (configuration not stated) [PROPRANOLOL] | -0.9 | 49% | – | – | – |
| O=C(c1ccc(OCCN2CCCCC2)cc1)c1c(-c2ccc(O)cc2)sc2cc(O)ccc12 [RALOXIFENE] | – | – | 9 | – | delta logD [6]: -0.9; logD ([5]; pH 6.5): 1.08; bioavailability ([3]; F): < 20% |
| CNC(=C[N+](=O)[O-])NCCSCc1ccc(CN(C)C)o1 [RANITIDINE] | – | – | – | – | delta logD [6]: -0.84; logD ([5]; pH 6.5): -1.44; bioavailability ([3]; F): 79% |
| CC(NCCc1ccc(O)cc1)C(O)c1ccc(O)cc1 (configuration not stated) [RITODRINE] | -0.89 | 49% | – | -1 | – |
| CSc1ccc2c(c1)N(CCC1CCCCN1C)c1ccccc1S2 (configuration not stated) [THIORIDAZINE] | -0.9 | 49% | – | 2.9 | – |
| CC(C)(C)NC[C@H](O)COc1nsnc1N1CCOCC1 [TIMOLOL] | -0.9 | – | 9.3 | -0.99 | bioavailability [13]: 79% |
| COc1cccc(C2(O)CCCCC2CN(C)C)c1 (configuration not stated) [TRAMADOL] | -0.9 | – | 9.4 | 0.85 | bioavailability [13]: 79% |
| C[C@H](CS)C(=O)N1C[C@@H](Sc2ccccc2)C[C@H]1C(=O)O [ZOFENOPRILAT] | 0.9 | – | 3.7 | -0.64 | bioavailability [13]: 79% |
| OCCN1CCN(CC/C=C2/c3ccccc3Sc3ccc(Cl)cc32)CC1 [ZUCLOPENTHIXOL] | -0.83 | – | 8.1 | 2.71 | bioavailability [13]: 79% |
